For 31 molecules, AC50 results are on record in ChEMBL document CHEMBL5291721, “A preclinical secondary pharmacology resource illuminates target-adverse drug reaction associations of marketed drugs” (Nat Commun, 2023).

For test [1], the target named is T1, Type-1 angiotensin II receptor (Homo sapiens, UniProt P30556).
T1 sequence (P30556 whole entry): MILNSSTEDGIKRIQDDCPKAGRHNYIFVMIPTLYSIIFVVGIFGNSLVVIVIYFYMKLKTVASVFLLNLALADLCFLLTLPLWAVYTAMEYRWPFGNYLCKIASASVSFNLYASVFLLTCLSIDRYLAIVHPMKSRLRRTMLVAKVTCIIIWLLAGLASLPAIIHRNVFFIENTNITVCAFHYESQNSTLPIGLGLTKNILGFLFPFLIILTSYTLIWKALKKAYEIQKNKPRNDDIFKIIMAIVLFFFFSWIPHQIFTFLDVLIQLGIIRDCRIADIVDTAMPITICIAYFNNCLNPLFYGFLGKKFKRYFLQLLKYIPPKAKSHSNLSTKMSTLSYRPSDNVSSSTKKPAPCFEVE

The target of test [2] is Vasopressin V1a receptor (Homo sapiens, UniProt P37288).
In test [3] the target is T2, Muscarinic acetylcholine receptor M1 (Homo sapiens, UniProt P11229).
T2 sequence (P11229 whole entry): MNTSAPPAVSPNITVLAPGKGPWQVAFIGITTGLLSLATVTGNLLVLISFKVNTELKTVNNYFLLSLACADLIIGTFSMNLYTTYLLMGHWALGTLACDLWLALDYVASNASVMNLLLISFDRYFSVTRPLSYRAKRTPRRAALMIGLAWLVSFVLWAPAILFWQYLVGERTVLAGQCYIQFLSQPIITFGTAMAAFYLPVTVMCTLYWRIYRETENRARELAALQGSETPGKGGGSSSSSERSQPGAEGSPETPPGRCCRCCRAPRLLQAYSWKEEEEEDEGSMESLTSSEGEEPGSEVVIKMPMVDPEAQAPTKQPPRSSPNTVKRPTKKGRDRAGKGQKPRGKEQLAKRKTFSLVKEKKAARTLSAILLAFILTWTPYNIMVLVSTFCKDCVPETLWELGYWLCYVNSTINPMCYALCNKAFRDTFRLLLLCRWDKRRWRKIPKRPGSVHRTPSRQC
It is filed as functional, cell-based.

In test [4] the target is Neuronal acetylcholine receptor subunit alpha-4 (Homo sapiens, UniProt P43681).
The target of test [5] is D(1A) dopamine receptor (Homo sapiens, UniProt P21728). It is filed as functional, cell-based.
In test [6] the target is Growth hormone secretagogue receptor type 1 (Homo sapiens, UniProt Q92847).
In test [7] the target is Melanocortin receptor 4 (Homo sapiens, UniProt P32245).
Test [8] has as its target T3, Neuropeptide Y receptor type 1 (Homo sapiens, UniProt P25929).
T3 sequence (P25929 whole entry): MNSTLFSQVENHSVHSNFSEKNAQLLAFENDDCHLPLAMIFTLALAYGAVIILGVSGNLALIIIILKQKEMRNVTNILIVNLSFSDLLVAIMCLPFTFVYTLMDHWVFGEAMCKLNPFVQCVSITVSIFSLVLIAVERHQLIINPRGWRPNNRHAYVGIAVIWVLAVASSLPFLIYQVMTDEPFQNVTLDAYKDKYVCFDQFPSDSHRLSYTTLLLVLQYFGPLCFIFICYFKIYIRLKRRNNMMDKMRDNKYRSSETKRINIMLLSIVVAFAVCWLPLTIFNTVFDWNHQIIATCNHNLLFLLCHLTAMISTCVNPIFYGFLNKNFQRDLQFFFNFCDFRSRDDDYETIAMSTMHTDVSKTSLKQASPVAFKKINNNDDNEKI
As to conditions: read-out: AC50.

Test [9] deals with T4, Prostaglandin G/H synthase 1 (Rattus norvegicus, UniProt Q63921).
T4 sequence (Q63921 whole entry): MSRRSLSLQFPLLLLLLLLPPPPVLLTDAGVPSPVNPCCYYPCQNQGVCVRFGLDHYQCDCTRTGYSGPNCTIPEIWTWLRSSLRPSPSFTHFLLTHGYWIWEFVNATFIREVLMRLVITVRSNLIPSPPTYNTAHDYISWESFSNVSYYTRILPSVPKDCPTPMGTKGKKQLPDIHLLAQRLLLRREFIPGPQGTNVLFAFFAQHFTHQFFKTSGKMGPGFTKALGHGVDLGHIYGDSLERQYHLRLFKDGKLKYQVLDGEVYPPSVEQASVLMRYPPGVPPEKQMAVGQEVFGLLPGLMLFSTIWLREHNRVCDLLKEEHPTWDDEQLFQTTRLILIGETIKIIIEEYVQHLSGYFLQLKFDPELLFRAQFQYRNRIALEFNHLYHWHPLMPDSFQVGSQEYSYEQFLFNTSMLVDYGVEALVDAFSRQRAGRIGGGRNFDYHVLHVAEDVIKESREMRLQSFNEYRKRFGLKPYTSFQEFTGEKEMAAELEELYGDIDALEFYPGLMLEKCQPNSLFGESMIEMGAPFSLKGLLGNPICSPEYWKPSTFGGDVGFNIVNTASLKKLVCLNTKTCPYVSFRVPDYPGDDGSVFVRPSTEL
It is filed as functional.

Test [10] concerns the target T5, Amine oxidase [flavin-containing] A (Homo sapiens, UniProt P21397).
T5 sequence (P21397 whole entry): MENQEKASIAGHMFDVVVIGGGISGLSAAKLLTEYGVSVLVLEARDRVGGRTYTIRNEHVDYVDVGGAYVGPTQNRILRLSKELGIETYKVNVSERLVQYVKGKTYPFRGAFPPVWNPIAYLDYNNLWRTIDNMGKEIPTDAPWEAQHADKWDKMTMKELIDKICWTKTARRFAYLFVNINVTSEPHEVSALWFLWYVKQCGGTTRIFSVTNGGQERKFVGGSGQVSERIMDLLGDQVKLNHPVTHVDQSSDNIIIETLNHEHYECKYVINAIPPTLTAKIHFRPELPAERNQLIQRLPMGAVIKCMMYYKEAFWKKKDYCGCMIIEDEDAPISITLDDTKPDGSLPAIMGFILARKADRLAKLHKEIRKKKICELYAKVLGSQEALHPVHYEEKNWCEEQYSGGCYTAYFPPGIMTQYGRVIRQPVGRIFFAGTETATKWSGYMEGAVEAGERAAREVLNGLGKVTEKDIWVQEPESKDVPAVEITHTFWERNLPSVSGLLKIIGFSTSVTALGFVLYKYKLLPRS
Format: functional.

The target in test [11] is cGMP-inhibited 3',5'-cyclic phosphodiesterase 3A (Homo sapiens, UniProt Q14432). It is filed as functional.
In test [12] the target is D(3) dopamine receptor (Homo sapiens, UniProt P35462).
Test [13] has as its target Vascular endothelial growth factor receptor 2 (Homo sapiens, UniProt P35968). Format: functional.
Note: assay procedure not described here.

Sequence of Vascular endothelial growth factor receptor 2 (P35968 whole entry): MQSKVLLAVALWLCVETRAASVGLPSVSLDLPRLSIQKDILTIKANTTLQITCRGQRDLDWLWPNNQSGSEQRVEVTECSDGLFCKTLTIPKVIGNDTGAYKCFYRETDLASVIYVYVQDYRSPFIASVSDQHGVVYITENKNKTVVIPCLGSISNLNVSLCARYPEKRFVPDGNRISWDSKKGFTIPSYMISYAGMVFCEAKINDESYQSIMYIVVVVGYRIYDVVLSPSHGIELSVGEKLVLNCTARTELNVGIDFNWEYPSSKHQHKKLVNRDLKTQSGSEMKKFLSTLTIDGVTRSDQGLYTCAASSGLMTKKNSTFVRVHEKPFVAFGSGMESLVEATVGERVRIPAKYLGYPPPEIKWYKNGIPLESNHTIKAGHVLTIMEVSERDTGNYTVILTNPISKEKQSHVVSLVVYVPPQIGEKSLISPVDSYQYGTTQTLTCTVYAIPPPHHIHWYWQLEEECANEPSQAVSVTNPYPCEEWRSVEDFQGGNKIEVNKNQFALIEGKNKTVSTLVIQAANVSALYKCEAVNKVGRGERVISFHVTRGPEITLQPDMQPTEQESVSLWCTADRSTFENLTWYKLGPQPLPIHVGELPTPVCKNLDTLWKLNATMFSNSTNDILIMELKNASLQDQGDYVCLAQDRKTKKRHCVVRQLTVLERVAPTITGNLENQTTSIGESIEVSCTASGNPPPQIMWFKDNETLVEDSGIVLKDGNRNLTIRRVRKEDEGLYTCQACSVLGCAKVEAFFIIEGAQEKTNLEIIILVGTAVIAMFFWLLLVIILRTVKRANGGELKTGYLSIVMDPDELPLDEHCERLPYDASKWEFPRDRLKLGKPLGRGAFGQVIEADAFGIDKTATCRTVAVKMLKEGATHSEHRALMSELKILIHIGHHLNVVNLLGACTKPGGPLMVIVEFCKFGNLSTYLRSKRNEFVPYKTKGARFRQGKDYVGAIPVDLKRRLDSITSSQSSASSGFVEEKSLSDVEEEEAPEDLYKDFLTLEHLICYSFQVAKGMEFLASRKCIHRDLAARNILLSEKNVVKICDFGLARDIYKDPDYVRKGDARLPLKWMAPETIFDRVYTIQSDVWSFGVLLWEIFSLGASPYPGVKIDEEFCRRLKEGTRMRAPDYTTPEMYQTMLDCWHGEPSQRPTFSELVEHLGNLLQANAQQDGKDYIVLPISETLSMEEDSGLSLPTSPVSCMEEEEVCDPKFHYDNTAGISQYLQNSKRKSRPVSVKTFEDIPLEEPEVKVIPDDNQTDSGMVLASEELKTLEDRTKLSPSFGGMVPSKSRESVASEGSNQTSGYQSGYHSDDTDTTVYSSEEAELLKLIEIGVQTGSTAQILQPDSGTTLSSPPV
Sequence of cGMP-inhibited 3',5'-cyclic phosphodiesterase 3A (Q14432 whole entry): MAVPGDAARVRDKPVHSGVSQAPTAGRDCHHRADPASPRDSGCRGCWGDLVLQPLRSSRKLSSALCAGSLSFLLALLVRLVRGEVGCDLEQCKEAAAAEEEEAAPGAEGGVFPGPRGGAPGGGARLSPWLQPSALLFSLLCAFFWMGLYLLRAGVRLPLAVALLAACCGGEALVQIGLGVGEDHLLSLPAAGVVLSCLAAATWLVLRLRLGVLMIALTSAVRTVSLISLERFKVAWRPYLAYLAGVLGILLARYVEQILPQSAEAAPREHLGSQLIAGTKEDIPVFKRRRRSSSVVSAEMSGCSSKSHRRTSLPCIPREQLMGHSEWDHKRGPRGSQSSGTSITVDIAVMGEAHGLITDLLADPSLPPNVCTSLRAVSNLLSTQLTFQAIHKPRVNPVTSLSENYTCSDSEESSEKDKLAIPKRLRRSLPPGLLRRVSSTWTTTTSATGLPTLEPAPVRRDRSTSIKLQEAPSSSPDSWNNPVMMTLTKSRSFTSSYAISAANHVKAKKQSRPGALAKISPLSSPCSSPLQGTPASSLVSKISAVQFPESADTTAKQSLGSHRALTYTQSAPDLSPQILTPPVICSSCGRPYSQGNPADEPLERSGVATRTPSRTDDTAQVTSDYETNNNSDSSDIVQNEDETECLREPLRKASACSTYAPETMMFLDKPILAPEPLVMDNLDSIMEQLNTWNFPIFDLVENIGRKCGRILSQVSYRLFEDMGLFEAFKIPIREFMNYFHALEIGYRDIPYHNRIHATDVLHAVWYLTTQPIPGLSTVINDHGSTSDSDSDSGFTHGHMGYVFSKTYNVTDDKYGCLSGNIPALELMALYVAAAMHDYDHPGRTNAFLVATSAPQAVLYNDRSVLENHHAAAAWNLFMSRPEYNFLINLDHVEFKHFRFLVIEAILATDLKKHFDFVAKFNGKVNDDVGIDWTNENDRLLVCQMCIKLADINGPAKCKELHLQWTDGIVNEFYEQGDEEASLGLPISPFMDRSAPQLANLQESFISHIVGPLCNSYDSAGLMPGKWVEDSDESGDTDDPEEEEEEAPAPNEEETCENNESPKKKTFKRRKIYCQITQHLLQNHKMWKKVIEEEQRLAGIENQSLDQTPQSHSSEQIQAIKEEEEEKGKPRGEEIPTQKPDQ
Sequence of Vasopressin V1a receptor (P37288 whole entry): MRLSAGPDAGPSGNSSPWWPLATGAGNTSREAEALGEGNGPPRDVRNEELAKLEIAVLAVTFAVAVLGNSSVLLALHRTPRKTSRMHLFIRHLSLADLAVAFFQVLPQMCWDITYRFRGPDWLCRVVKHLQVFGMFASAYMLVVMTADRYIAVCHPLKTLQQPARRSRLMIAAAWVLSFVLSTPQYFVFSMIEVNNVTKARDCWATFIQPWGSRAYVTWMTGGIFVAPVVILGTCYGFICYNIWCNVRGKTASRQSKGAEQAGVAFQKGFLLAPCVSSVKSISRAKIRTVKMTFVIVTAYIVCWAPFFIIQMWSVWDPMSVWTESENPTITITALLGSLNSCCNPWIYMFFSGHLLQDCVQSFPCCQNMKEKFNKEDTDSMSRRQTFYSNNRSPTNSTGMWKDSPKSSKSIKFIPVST
Sequence of D(3) dopamine receptor (P35462 whole entry): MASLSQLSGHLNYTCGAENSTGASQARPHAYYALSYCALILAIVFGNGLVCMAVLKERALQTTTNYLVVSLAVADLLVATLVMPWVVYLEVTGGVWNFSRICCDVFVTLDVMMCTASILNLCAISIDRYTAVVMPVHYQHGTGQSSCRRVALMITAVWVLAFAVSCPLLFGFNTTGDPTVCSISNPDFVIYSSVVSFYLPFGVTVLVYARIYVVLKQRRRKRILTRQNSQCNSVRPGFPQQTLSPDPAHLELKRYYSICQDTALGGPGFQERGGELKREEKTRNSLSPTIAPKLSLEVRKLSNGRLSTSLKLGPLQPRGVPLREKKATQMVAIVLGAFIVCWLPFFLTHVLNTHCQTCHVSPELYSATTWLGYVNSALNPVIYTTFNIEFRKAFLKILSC
Sequence of Melanocortin receptor 4 (P32245 whole entry): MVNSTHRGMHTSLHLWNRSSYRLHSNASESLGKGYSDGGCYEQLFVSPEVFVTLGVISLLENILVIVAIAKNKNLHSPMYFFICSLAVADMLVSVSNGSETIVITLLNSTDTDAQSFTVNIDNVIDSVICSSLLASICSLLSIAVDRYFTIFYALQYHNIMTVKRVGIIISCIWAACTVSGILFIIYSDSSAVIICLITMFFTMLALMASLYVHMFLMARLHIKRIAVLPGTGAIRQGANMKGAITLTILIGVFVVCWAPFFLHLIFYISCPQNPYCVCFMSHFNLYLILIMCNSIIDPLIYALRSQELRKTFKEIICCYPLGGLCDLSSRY
Sequence of D(1A) dopamine receptor (P21728 whole entry): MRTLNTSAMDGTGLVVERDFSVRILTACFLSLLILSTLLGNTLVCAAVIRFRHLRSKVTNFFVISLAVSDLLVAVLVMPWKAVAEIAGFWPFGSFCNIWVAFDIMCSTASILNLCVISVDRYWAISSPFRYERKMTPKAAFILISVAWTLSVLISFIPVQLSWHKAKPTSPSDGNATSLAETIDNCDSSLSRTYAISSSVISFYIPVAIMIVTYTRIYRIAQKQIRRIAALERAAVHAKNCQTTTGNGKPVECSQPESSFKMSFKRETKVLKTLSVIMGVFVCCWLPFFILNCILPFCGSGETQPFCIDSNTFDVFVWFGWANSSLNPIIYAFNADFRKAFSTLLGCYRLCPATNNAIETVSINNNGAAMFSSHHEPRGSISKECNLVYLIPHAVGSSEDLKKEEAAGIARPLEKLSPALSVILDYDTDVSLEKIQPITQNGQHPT
Sequence of Neuronal acetylcholine receptor subunit alpha-4 (P43681 whole entry): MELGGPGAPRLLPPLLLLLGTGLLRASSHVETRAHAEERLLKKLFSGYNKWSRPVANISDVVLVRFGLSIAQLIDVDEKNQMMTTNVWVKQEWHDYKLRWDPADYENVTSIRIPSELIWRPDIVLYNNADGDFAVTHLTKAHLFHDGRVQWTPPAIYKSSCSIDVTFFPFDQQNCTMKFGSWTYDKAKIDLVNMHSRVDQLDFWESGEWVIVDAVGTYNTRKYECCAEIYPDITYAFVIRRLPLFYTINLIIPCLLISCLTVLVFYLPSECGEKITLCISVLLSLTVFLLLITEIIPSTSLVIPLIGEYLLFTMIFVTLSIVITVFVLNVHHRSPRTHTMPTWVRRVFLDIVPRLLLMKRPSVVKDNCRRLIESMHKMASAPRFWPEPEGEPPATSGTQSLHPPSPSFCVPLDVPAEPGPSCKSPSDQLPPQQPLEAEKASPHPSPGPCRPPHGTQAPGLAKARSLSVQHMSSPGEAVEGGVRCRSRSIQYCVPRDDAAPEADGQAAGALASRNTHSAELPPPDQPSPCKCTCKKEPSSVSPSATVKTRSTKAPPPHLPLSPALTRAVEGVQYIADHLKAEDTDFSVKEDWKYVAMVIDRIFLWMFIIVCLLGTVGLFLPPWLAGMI

The term AC50 denotes the concentration giving half of the maximal activity seen. `CCCN(CCC)C(=O)Cc1c(-c2ccc(Cl)cc2)nc2ccc(Cl)cn12` [ALPIDEM]: the half-maximal activity concentration (AC50) in test [1], in test [2], in [3], in [4], in test [5] and in test [6] was over 30 µM each time. Besides, the concentration at half-maximal activity (AC50) in test [7], in test [8], in test [9], in [10], in test [11] and in [12] was over 30 µM throughout.
Take `COc1c2ccoc2cc2oc(=O)ccc12` [BERGAPTEN]: the AC50 in test [3] and in test [13] was over 30 µM in each case.
Turning to `CNC(=O)Oc1cccc2ccccc12` [CARBARIL], the AC50 in test [3] and in [13] was over 30 µM each time.
For `CC[C@H](C)C[C@H](C)CCCCCCCCC(=O)N[C@H]1C[C@@H](O)[C@@H](NCCN)NC(=O)[C@@H]2[C@@H](O)CCN2C(=O)[C@H]([C@H](O)CCN)NC(=O)[C@H]([C@H](O)[C@@H](O)c2ccc(O)cc2)NC(=O)[C@@H]2C[C@@H](O)CN2C(=O)[C@H]([C@@H](C)O)NC1=O` [CASPOFUNGIN], the concentration at half-maximal activity (AC50) in test [3] was over 30 µM; in test [13], over 10 µM.
The like results for `C/C=C/C/C=C/CCC(=O)[C@H]1O[C@H]1C(N)=O` [CERULENIN] were, in that order, over 30 µM and over 30 µM.
For `N[C@@H](CS)C(=O)O` [CYSTEINE], in that order: over 30 µM and over 30 µM.
For `OC[C@H]1O[C@@H](c2ccc(Cl)c(Cc3ccc(O[C@H]4CCOC4)cc3)c2)[C@H](O)[C@@H](O)[C@@H]1O` [EMPAGLIFLOZIN], in that order: over 30 µM and over 30 µM.
As for `CC(C)(O)CNc1nc(Nc2ccnc(C(F)(F)F)c2)nc(-c2cccc(C(F)(F)F)n2)n1` [ENASIDENIB], the AC50 is over 30 µM in test [3] and 20.5 µM in test [13].
In test [3], `CCc1nc(C(N)=O)c(Nc2ccc(N3CCC(N4CCN(C)CC4)CC3)c(OC)c2)nc1NC1CCOCC1` [GILTERITINIB] had a half-maximal activity concentration (AC50) of over 30 µM.
As to `CC[C@H](c1ccc(O)cc1)[C@@H](CC)c1ccc(O)cc1` [HEXESTROL], the AC50 in test [3] was 22.8 µM; in test [13], over 30 µM.
The like results for `O=C1/C(=C2\Nc3ccc(S(=O)(=O)O)cc3C2=O)Nc2ccc(S(=O)(=O)O)cc21` [INDIGOTINDISULFONATE] were, in that order, over 30 µM and 3.05 µM.
For the molecule `OC[C@H]1O[C@@H](c2ccc(F)c(Cc3cc4ccccc4s3)c2)[C@H](O)[C@@H](O)[C@@H]1O` [IPRAGLIFLOZIN], in test [3], the AC50 is over 30 µM.
Consider `CC(C)C[C@H](NC(=O)CNC(=O)c1cc(Cl)ccc1Cl)B(O)O` [IXAZOMIB], for which the AC50 in test [3] and in [13] was over 30 µM throughout.
On to `C=CCN1CC[C@]23CCCC[C@H]2[C@H]1Cc1ccc(O)cc13` [LEVALLORPHAN], for which the concentration at half-maximal activity (AC50) in test [3] and in test [13] was over 30 µM each time.
`CN1CCCCC1CCN1c2ccccc2Sc2ccc([S+](C)[O-])cc21` (centres undefined) [MESORIDAZINE]: the concentration at half-maximal activity (AC50) in test [3] and in test [13] was over 30 µM throughout.
Regarding `C[C@@H]1C[C@H]2[C@@H]3CCC4=CC(=O)C=C[C@]4(C)[C@@]3(Cl)[C@@H](O)C[C@]2(C)[C@@]1(OC(=O)c1ccco1)C(=O)CCl` [MOMETASONE FUROATE], the half-maximal activity concentration (AC50) in test [3] and in [13] was over 30 µM in each case.
In the case of `Cc1ccccc1C(=O)Nc1ccc(C(=O)N2CCCC(N(C)C)c3ccccc32)cc1` (centres undefined) [MOZAVAPTAN], the AC50 in [3] and in [13] was over 30 µM each time.
Regarding `O=C(O)c1cc(/N=N/c2ccc(O)c(C(=O)O)c2)ccc1O` [OLSALAZINE], the AC50 is over 30 µM in [3] and 12.3 µM in test [13].
For `CCOC(=O)C1=C[C@@H](OC(CC)CC)[C@H](NC(C)=O)[C@@H](N)C1` [OSELTAMIVIR], in that order: over 30 µM and over 30 µM.
The like results for `Cc1onc(-c2ccccc2)c1C(=O)N[C@@H]1C(=O)N2[C@@H]1SC(C)(C)[C@@H]2C(=O)O` [OXACILLIN] were, in that order, over 30 µM and over 30 µM.
For the molecule `CCn1cc(C(=O)O)c(=O)c2cc3c(cc21)OCO3` [OXOLINIC ACID], the AC50 in test [3] and in test [13] was over 30 µM each time.
`N#Cc1ccc2c(c1)N(CCCN1CCC(O)CC1)c1ccccc1S2` [PERICIAZINE] had an AC50 in [3] of over 30 µM.
In the case of `FC(F)(F)c1ccc(CNc2ccc(Cc3c[nH]c4ncc(Cl)cc34)cn2)cn1` [PEXIDARTINIB], the concentration at half-maximal activity (AC50) in test [3] was over 30 µM; in [13], 0.131 µM.
The like results for `Nc1ccc(C(=O)Oc2ccccc2)c(O)c1` [PHENYL AMINOSALICYLATE] were, in that order, over 30 µM and 23.2 µM.
In the case of `CN1CCC(=C2c3ccccc3Sc3ccccc32)CC1` [PIMETHIXENE], the concentration at half-maximal activity (AC50) in test [3] and in [13] was over 30 µM in each case.
Turning to `[H]/N=C(\N/C(=N/[H])Nc1ccc(Cl)cc1)NC(C)C` [PROGUANIL], the AC50 in test [3] and in test [13] was over 30 µM each time.
Consider `CC(CN1CC(=O)NC(=O)C1)N1CC(=O)NC(=O)C1` (centres undefined) [RAZOXANE], for which the half-maximal activity concentration (AC50) in [3] and in test [13] was over 30 µM each time.
As to `N[C@@H](CO)C(=O)O` [SERINE], the half-maximal activity concentration (AC50) in test [3] and in [13] was over 30 µM in each case.
With `CC(C)OC(=O)CCC/C=C\C[C@@H]1[C@@H](/C=C/C(F)(F)COc2ccccc2)[C@H](O)C[C@@H]1O` [TAFLUPROST], the results for the AC50 in test [3] and in [13] were over 30 µM and over 10 µM, respectively.
For `CC[C@H]1OC(=O)[C@H](C)C(=O)[C@H](C)[C@@H](O[C@@H]2O[C@H](C)C[C@H](N(C)C)[C@H]2O)[C@](C)(OC)C[C@@H](C)C(=O)[C@H](C)[C@H]2N(CCCCn3cnc(-c4cccnc4)c3)C(=O)O[C@]12C` [TELITHROMYCIN], in that order: over 30 µM and over 30 µM.
For `CC(=O)Oc1cc(C(F)(F)F)ccc1C(=O)O` [TRIFLUSAL], the half-maximal activity concentration (AC50) in [3] and in test [13] was over 30 µM throughout.
